Columns and labels:
[1] = tested on: psoriasis caused by imiquimod; experiment: Epithelial thickness of back skin by H&E staining in imiquimod psoriasis model; type: in vivo, Balb/c mice; conditions: after treatment for a week, compared to the IMQ group
Excerpt: (§1) 6-week-old male Balb/c mice (Kangwon Life Science, Korea) were purchased and acclimated for a week, and psoriasis was induced using 5% imiquimod (Donga ST, Korea). FIG. 1 is a schematic experimental scheme of an animal model. Anti-psoriatic efficacy was investigated using a total of 20 animal models including 5 animals per experimental group.
(§2) In order to determine the effect of the extract of Thalictrum squarrosum steph on psoriasis caused by imiquimod, the experimental animals of Section 2-1 were used. The following four experimental groups were constructed and five animals were randomly assigned to each group:
(§3) The experiment was conducted by inducing psoriasis with IMQ cream and then performing daily application in the amount shown in FIG. 2 to the experimental group and the DEX group. FIG. 3 is an image showing the treatment group for 7 days compared to the psoriasis-induced model as the animal experimental model.
After treatment for a week, the back skin tissue was removed from each animal, and then a paraffin block was prepared. The paraffin block was cut to 5 μm to prepare a slide sample, and then the change in the thickness of the skin tissue was measured through H&E staining.

[2] = tested on: filaggrin, loricrin, keratin 1 and keratin 14; experiment: Biomarkers for epithelial tissue damage in back skin by immunofluorescence; type: in vivo, Balb/c mice; conditions: after treatment for a week, versus IMQ group
Excerpt: as §1, §2, §3
After treatment for a week, back skin tissue was removed from each animal and a paraffin block was then prepared. A paraffin block was cut to 5 μm to prepare a slide sample, and then the change in biomarkers for epithelial tissue damage due to psoriasis was measured through immunofluorescence.

Structure (SMILES): C[C@@H]1C[C@H]2[C@@H]3CCC4=CC(=O)C=C[C@]4(C)[C@@]3(F)[C@@H](O)C[C@]2(C)[C@@]1(O)C(=O)CO [DEX, dexamethasone]
- thickness of the epithelial layer [1]: decreased thickness
- expression level of filaggrin [2]: increased
- expression level of keratin 1 [2]: increased
- expression level of keratin 14 [2]: increased
- expression level of loricrin [2]: increased
